# Measurements reported in patent US12564640B2, “Protein-antiviral compound conjugates” (priority 2020, dated 2026).
# B1: mAb11729: anti-hemagglutinin (anti-HA) monoclonal antibody, HCVR SEQ ID NO: 18, LCVR SEQ ID NO: 26 (antibody, V domains shown)
# VH: QVQLVQSGAEVKKSGSSVKVSCKASGGTFSSYAISWVRQAPGQGLEWMGGIIPIFGTPSYAQKFQDRVTITTDESTSTVYMELSSLRSEDTAVYYCARQQPVYQYNMDVWGQGTTVTVSS
# VL: DIQMTQSPSSLSASVGDRVTITCRASQGIRNNLGWYQQKPLKAPKRLIYAASSLQSGVPSRFSGSGSGTEFTLTISSLQPEDFATYYCLQYNNYPWTFGQGTKVEIK
# Legend:
# [1] = tested on: influenza A/H3N2/HK68x31 virus; assay: Antiviral efficacy assay, HK68x31; format: cell-based
# [2] = tested on: influenza A/H1N1/PR8 virus; assay: microbe, parasite or virus in culture; format: cell-based, H1N1 A/Puerto Rico/08/1934 influenza virus; settings: for Fold increase over parental antibody: relative to mAb11729 of the same run
# [3] = tested on: influenza A/H1N1/Cal09 virus; assay: Antiviral efficacy assay, Cal09; format: cell-based; settings: relative to mAb11729
molecule,measurement,setting,value
"O=C(O)[C@H]1C2CCC(CC2)[C@@H]1Nc1nc(-c2c[nH]c3ncc(F)cc23)ncc1F [VX-787, reference compound]",IC50,[1],7.05 nM
same,IC50,"[2]; MDCK London cells, Runs 1-4",9.46 nM
same,Fold increase over parental antibody,[2],3.32 fold
B1,Fold increase over parental antibody,[3],1.00 fold
same,Fold increase over parental antibody,[2],1.00 fold
